Data taken from US20190100534A1, “Cephem Compounds with Latent Reactive Groups” (Gladius Pharmaceuticals, Inc., priority 2017, published 2019).

Assays:
[1] = tested on: Pseudomonas aeruginosa PA (RR-2); assay: MIC determination; assay type: cell-based; settings: PA (RR-2), CAMH broth, 20 μM Apo-Transferrin, 37° C., 18 hours
In short: (§1)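 Broth microdilution in CAMH + 20 μM apo-transferrin; inoculum 0.5 McFarland, used within 30 min. Compound 64→0.125 μg/mL, twofold steps. 37 °C, 18 h. MIC = lowest clear-well concentration.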

[2] = tested on: Pseudomonas aeruginosa PA (URMC-3); assay: MIC determination; assay type: cell-based; settings: PA (URMC-3), CAMH broth, 20 μM Apo-Transferrin, 37° C., 18 hours
In short: as §1

[3] = tested on: Pseudomonas aeruginosa PA-RR-(980151052); assay: MIC determination; assay type: cell-based; settings: PA-RR-(980151052), CAMH broth, 20 μM Apo-Transferrin, 37° C., 18 hours
In short: as §1

[4] = tested on: Pseudomonas aeruginosa PA-RR-(98023895); assay: MIC determination; assay type: cell-based; settings: PA-RR-(98023895), CAMH broth, 20 μM Apo-Transferrin, 37° C., 18 hours
In short: as §1

[5] = tested on: Pseudomonas aeruginosa PA-RR-(G7304100); assay: MIC determination; assay type: cell-based; settings: PA-RR-(G7304100), CAMH broth, 20 μM Apo-Transferrin, 37° C., 18 hours
In short: as §1

[6] = tested on: Pseudomonas aeruginosa PA-RR-(G7305586); assay: MIC determination; assay type: cell-based; settings: PA-RR-(G7305586), CAMH broth, 20 μM Apo-Transferrin, 37° C., 18 hours
In short: as §1

[7] = tested on: A. baumannii; assay: MIC determination; assay type: cell-based, Acinetobacter baumannii; settings: for MICs for an Acinetobacter baumannii strain, in words: review of Table 2
Protocol: (§2) Sterile technique was used throughout these experiments. Suspensions of organisms were removed from storage (−80° C.) and partially thawed. Partially thawed organisms (1 μL) were inoculated into 3 mL sterile LB Broth in a sterile culture tube and capped, then cultured at 37° C. with shaking for 4-5 hours until the optical density at 600 nm (OD600) was greater than 0.1 on a single beam spectrophotometer.
(§3) The concentration of organisms was adjusted to 0.08-0.1 OD600 (0.5 McFarland units) by dilution with sterile cation-adjusted Meuller-Hinton (CAMH) broth. The suspensions were used within 30 minutes of preparation.
(§4) A stock solution was made of each test compound by measuring 6.4 mg of the compound on an analytical balance and dissolving it in DMSO (1 mL) to get a transparent solution. The solutions were stored at −20° C. and thawed prior to use.
(§5) Sterile CAMH broth (200 μL) containing 20 μM Apo-Transferrin was pipetted into the first row of 8 columns of a sterile, round-bottomed, transparent, 96-well microplate using an 8-channel pipette equipped with sterile tips. One hundred μL was pipetted into the wells of the remaining 11 rows.
(§6) With an 8-channel pipette equipped with sterile tips, 100 μL of the first row solution was transferred to the second row and mixed. The process was repeated for the second to third rows and continued through row 11. One hundred μL from row 11 was removed and discarded so that all 12 rows contained 100 μL. Row 12 contained no compound and rows 1-11 contained 64, 32, 16, 8, 4, 2, 1, 0.5, 0.25, 0.125, […] of a given compound.
(§7) Inoculant suspensions (0.5 μL) were added to the 12 wells of each column. The plates were then covered and incubated at 37° C. overnight for 18 hours.
(§8) For each organism the MIC was determined by identifying the transparent well with the lowest test compound concentration.

[8] = tested on: EC (RR -1); assay: MIC determination; assay type: cell-based, Escherichia coli; settings: CAMH broth, 20 μM Apo-Transferrin, 37° C., 18 hours
Protocol: as §2, §3, §4, §5, §6, §7, §8

[9] = tested on: EC (RR -2); assay: MIC determination; assay type: cell-based, Escherichia coli; settings: CAMH broth, 20 μM Apo-Transferrin, 37° C., 18 hours
Protocol: as §2, §3, §4, §5, §6, §7, §8

[10] = tested on: EC (URMC-1); assay: MIC determination; assay type: cell-based, Escherichia coli; settings: CAMH broth, 20 μM Apo-Transferrin, 37° C., 18 hours
Protocol: as §2, §3, §4, §5, §6, §7, §8

[11] = tested on: EC (URMC-2); assay: MIC determination; assay type: cell-based, Escherichia coli; settings: CAMH broth, 20 μM Apo-Transferrin, 37° C., 18 hours
Protocol: as §2, §3, §4, §5, §6, §7, §8

[12] = tested on: EC (URMC-3); assay: MIC determination; assay type: cell-based, Escherichia coli; settings: CAMH broth, 20 μM Apo-Transferrin, 37° C., 18 hours
Protocol: as §2, §3, §4, §5, §6, §7, §8

[13] = tested on: EC(ATCC NDM-1); assay: MIC determination; assay type: cell-based, Escherichia coli; settings: CAMH broth, 20 μM Apo-Transferrin, 37° C., 18 hours
Protocol: as §2, §3, §4, §5, §6, §7, §8

[14] = tested on: EC(JMI OXA-48); assay: MIC determination; assay type: cell-based, Escherichia coli; settings: CAMH broth, 20 μM Apo-Transferrin, 37° C., 18 hours
Protocol: as §2, §3, §4, §5, §6, §7, §8

[15] = tested on: EC(KB1 CTX-M-15); assay: MIC determination; assay type: cell-based, Escherichia coli; settings: CAMH broth, 20 μM Apo-Transferrin, 37° C., 18 hours
Protocol: as §2, §3, §4, §5, §6, §7, §8

[16] = tested on: EC(KB2 CTX-M-15); assay: MIC determination; assay type: cell-based, Escherichia coli; settings: CAMH broth, 20 μM Apo-Transferrin, 37° C., 18 hours
Protocol: as §2, §3, §4, §5, §6, §7, §8

[17] = tested on: KP (ATCC KPC-3); assay: MIC determination; assay type: cell-based, Klebsiella pneumoniae; settings: CAMH broth, 20 μM Apo-Transferrin, 37° C., 18 hours
Protocol: as §2, §3, §4, §5, §6, §7, §8

[18] = tested on: KP (GJ 5659 TEM-26); assay: MIC determination; assay type: cell-based, Klebsiella pneumoniae; settings: CAMH broth, 20 μM Apo-Transferrin, 37° C., 18 hours
Protocol: as §2, §3, §4, §5, §6, §7, §8

[19] = tested on: KP (RR -1); assay: MIC determination; assay type: cell-based, Klebsiella pneumoniae; settings: CAMH broth, 20 μM Apo-Transferrin, 37° C., 18 hours
Protocol: as §2, §3, §4, §5, §6, §7, §8

[20] = tested on: KP (URMC-1); assay: MIC determination; assay type: cell-based, Klebsiella pneumoniae; settings: CAMH broth, 20 μM Apo-Transferrin, 37° C., 18 hours
Protocol: as §2, §3, §4, §5, §6, §7, §8

[21] = tested on: KP (URMC-2); assay: MIC determination; assay type: cell-based, Klebsiella pneumoniae; settings: CAMH broth, 20 μM Apo-Transferrin, 37° C., 18 hours
Protocol: as §2, §3, §4, §5, §6, §7, §8

[22] = tested on: KP (URMC-3); assay: MIC determination; assay type: cell-based, Klebsiella pneumoniae; settings: CAMH broth, 20 μM Apo-Transferrin, 37° C., 18 hours
Protocol: as §2, §3, §4, §5, §6, §7, §8

[23] = tested on: KP(GJ 5934 TEM-26); assay: MIC determination; assay type: cell-based, Klebsiella pneumoniae; settings: CAMH broth, 20 μM Apo-Transferrin, 37° C., 18 hours
Protocol: as §2, §3, §4, §5, §6, §7, §8

[24] = tested on: KP(JMI KPC-2); assay: MIC determination; assay type: cell-based, Klebsiella pneumoniae; settings: CAMH broth, 20 μM Apo-Transferrin, 37° C., 18 hours
Protocol: as §2, §3, §4, §5, §6, §7, §8

[25] = tested on: KP(ATCC TEM-10/TEM-12); assay type: cell-based, Klebsiella pneumoniae; settings: CAMH broth, 20 μM Apo-Transferrin, 37° C., 18 hours
Protocol: as §2, §3, §4, §5, §6, §7, §8

[26] = tested on: CF (RR -1); assay: MIC determination; assay type: cell-based, Citrobacter freundii; settings: CAMH broth, 20 μM Apo-Transferrin, 37° C., 18 hours
Protocol: as §2, §3, §4, §5, §6, §7, §8

[27] = tested on: ENC (ATCC NDM-1); assay: MIC determination; assay type: cell-based, Enterobacter cloacae; settings: CAMH broth, 20 μM Apo-Transferrin, 37° C., 18 hours
Protocol: as §2, §3, §4, §5, §6, §7, §8

SMILES	MICs for an Acinetobacter baumannii strain, in words [7]	Mimimum Inhibitory Concentrations, EC (RR -1) [8]	Mimimum Inhibitory Concentrations, EC (RR -2) [9]	Minimum Inhibitory Concentrations, KP (ATCC KPC-3) [17]	Minimum Inhibitory Concentrations, KP (GJ 5659 TEM-26) [18]	Mimimum Inhibitory Concentrations, KP (RR -1) [19]	Minimum Inhibitory Concentrations, KP (URMC-1) [20]	Minimum Inhibitory Concentrations, KP (URMC-2) [21]	Minimum Inhibitory Concentrations, KP (URMC-3) [22]	Minimum Inhibitory Concentrations, KP(GJ 5934 TEM-26) [23]	Minimum Inhibitory Concentrations, KP(JMI KPC-2) [24]	Minimum Inhibitory Concentrations, KP(ATCC TEM-10/TEM-12) [25]	Mimimum Inhibitory Concentrations, CF (RR -1) [26]	Mimimum Inhibitory Concentrations, ENC (ATCC NDM-1) [27]	also measured
CC(C)(O/N=C(\C(=O)N[C@@H]1C(=O)N2C(C(=O)O)=C(C=Cc3ccc(C[N+]4(C)Cc5cc(O)c(O)c(Cl)c5C4)cc3)CS[C@H]12)c1csc(N)n1)C(=O)O (mixture of isomers) [Compound 432, 2-(4-((E/Z)-2-((6R,7R)-7-((Z)-2-(2-aminothiazol-4-yl)-2-(((2-carboxypropan-2-yl)oxy)imino)acetamido)-2-carboxy-8-oxo-5-thia-1-azabicyclo[4.2.0]oct-2-en-3-yl)vinyl)benzyl)-4-chloro-5,6-dihydroxy-2-methylisoindolin-2-ium]	low microgram/mL MICs	≤0.06 microgram/mL	≤0.06 microgram/mL	>64 microgram/mL	1 microgram/mL	0.25 microgram/mL	0.13 microgram/mL	≤0.06 microgram/mL	≤0.06 microgram/mL	0.13 microgram/mL	64 microgram/mL	8 microgram/mL	0.5 microgram/mL	>64 microgram/mL	MIC ([1]; Pseudomonas aeruginosa, read-out: Minimum Inhibitory Concentrations, PA (RR-2)): 0.13 µg/mL; MIC ([2]; Pseudomonas aeruginosa, read-out: Minimum Inhibitory Concentrations, PA (URMC-3)): 1 µg/mL; MIC ([3]; Pseudomonas aeruginosa, read-out: Minimum Inhibitory Concentrations, PA-RR-(980151052)): 0.25 µg/mL; MIC ([4]; Pseudomonas aeruginosa, read-out: Minimum Inhibitory Concentrations, PA-RR-(98023895)): 4 µg/mL; MIC ([5]; Pseudomonas aeruginosa, read-out: Minimum Inhibitory Concentrations, PA-RR-(G7304100)): ≤ 0.06 µg/mL; MIC ([6]; Pseudomonas aeruginosa, read-out: Minimum Inhibitory Concentrations, PA-RR-(G7305586)): 1 µg/mL; MIC ([7]; Acinetobacter baumannii, A. baumannii, CAMH broth, 20 μM Apo-Transferrin, 37° C., 18 hours, read-out: Minimum Inhibitory Concentrations, A. baumannii): 1 µg/mL; MIC ([10]; Escherichia coli, read-out: Minimum Inhibitory Concentrations, EC (URMC-1)): 0.5 µg/mL; MIC ([11]; Escherichia coli, read-out: Minimum Inhibitory Concentrations, EC (URMC-2)): ≤ 0.06 µg/mL; MIC ([12]; Escherichia coli, read-out: Minimum Inhibitory Concentrations, EC (URMC-3)): 0.13 µg/mL; MIC ([13]; Escherichia coli, read-out: Minimum Inhibitory Concentrations, EC(ATCC NDM-1)): > 64 µg/mL; MIC ([14]; Escherichia coli, read-out: Minimum Inhibitory Concentrations, EC(JMI OXA-48)): 0.5 µg/mL; MIC ([15]; Escherichia coli, read-out: Minimum Inhibitory Concentrations, EC(KB1 CTX-M-15)): 1 µg/mL; MIC ([16]; Escherichia coli, read-out: Minimum Inhibitory Concentrations, EC(KB2 CTX-M-15)): 1 µg/mL
CC(C)(O/N=C(\C(=O)N[C@@H]1C(=O)N2C(C(=O)O)=C(C=Cc3ccc(C[n+]4ccc5cc(O)c(O)cc5c4)cc3)CS[C@H]12)c1csc(N)n1)C(=O)O (mixture of isomers) [Compound 435, 2-(4-((E/Z)-2-((6R,7R)-7-((Z)-2-(2-aminothiazol-4-yl)-2-(((2-carboxypropan-2-yl)oxy)imino)acetamido)-2-carboxy-8-oxo-5-thia-1-azabicyclo[4.2.0]oct-2-en-3-yl)vinyl)benzyl)-6,7-dihydroxyisoquinolin-2-ium]	low microgram/mL MICs	≤0.06 microgram/mL	≤0.06 microgram/mL	>64 microgram/mL	0.13 microgram/mL	≤0.06 microgram/mL	≤0.06 microgram/mL	≤0.06 microgram/mL	≤0.06 microgram/mL	<0.06 microgram/mL	4 microgram/mL	2 microgram/mL	≤0.06 microgram/mL	>64 microgram/mL	Minimum Inhibitory Concentrations, PA (RR-2) [1]: ≤0.06 microgram/mL; Minimum Inhibitory Concentrations, PA (URMC-3) [2]: ≤0.06 microgram/mL; Minimum Inhibitory Concentrations, PA-RR-(980151052) [3]: 0.13 microgram/mL; Minimum Inhibitory Concentrations, PA-RR-(98023895) [4]: 1 microgram/mL; Minimum Inhibitory Concentrations, PA-RR-(G7304100) [5]: ≤0.06 microgram/mL; Minimum Inhibitory Concentrations, PA-RR-(G7305586) [6]: 0.25 microgram/mL; Minimum Inhibitory Concentrations, A. baumannii ([7]; A. baumannii, CAMH broth, 20 μM Apo-Transferrin, 37° C., 18 hours): 1 microgram/mL; Minimum Inhibitory Concentrations, EC (URMC-1) [10]: ≤0.06 microgram/mL; Minimum Inhibitory Concentrations, EC (URMC-2) [11]: ≤0.06 microgram/mL; Minimum Inhibitory Concentrations, EC (URMC-3) [12]: 0.5 microgram/mL; Minimum Inhibitory Concentrations, EC(ATCC NDM-1) [13]: >64 microgram/mL; Minimum Inhibitory Concentrations, EC(JMI OXA-48) [14]: 0.5 microgram/mL; Minimum Inhibitory Concentrations, EC(KB1 CTX-M-15) [15]: 0.13 microgram/mL; Minimum Inhibitory Concentrations, EC(KB2 CTX-M-15) [16]: 0.5 microgram/mL
